Laboratory results: patent EP3064205A1, “Therapeutic use of isomeric forms of 2-(4-chlorophenyl)quinolin-4-yl)(piperidin-2-yl)methanol” (Glionova AB, priority 2015, dated 2016)
Entries after “also recorded” stand apart in the source; their conditions may differ. Like-named read-outs stand apart in the source and are kept apart here.

Tests used:
[1] = Pharmacokinetic evaluation in mice (plasma and brain); format: in vivo, male NMRI mice; conditions: for Kp / half-life / Tmax / Cmax: male, NMRI, mouse; for Kp: brain/plasma, single oral administration of 20 mg/kg
Description: Compounds S1 and S2 were formulated at 0.4 mg/mL in 7.5% NMP, 10% Kolliphor in 0.9% NaCl (for i.v. administration) and at 2.0 mg/mL in 0.1% Tween 80, 0.5% Na-CMC in water (for p.o. administration).
The pharmacokinetic properties of S1 and S2 were determined in male NMRI mice (Charles River, Germany) following single intravenous (i.v., tail vein, 2 mg/kg) or per oral (p.o, gavage, 20 mg/kg). Light isoflurane anaesthesia was used at i.v. administration, no anaesthesia was used at p.o. administration. Blood samples were kept on ice after sampling and centrigued at +4 °C, 1800 x g for 5 minutes to prepare plasma. Blood and homogenized brain samples were taken from animals at the following nominal time points: 15, 30, and 60 minutes, and 2, 4, 6, 8, 24, 48, 72 and 144 hours after dosing (n=3 samples/time-point). Blood sampling (400-600 microliters) was performed by orbital plexus collection under isoflurane anaesthesia into EDTA plasma tubes (BD Microtainer K2EDTA). Bioanalytical quantification of S1 and S2 was analysed in plasma and brain samples by a UPLC-MS/MS. Pharmacokinetics were calculated by non-compartmental analysis (NCA) from composite (mean) profiles using Phoenix WinNonlin Professional (v 6.3). Nominal sampling times and dose levels have been used for the NCA calculations. All animals dosed with S1 and S2 were systemically exposed to the test compound. The plasma and brain concentrations were detectable and analysed until 144 h.
Brain sampling was performed after the end of blood sampling at the specified time points following euthanization and skull extraction. Brains were weighed and placed in test tubes and placed on wet ice. 4 mL PBS (pH 7.4) per 1 g of brain tissue was added to the test tube and brains were then homogenized using an Ultra-Turrax T25 homogenisator (Setting 2, 9500 rpm, 10s). The homogenates were frozen at -20° C immediately after homogenization.

HPAF II cells = assay: ATP viability assay (CellTiter-Glo), 3D culture, automatic drug screen; format: cell-based, human; conditions: 72 h, 30-10 µM
Description: (§1) The following well-characterized human pancreatic ductal adenocarcinoma cell lines (ATCC) were used: HPAF II, BxPC-3, MIA-PaCa2 and Panc-1. These cell lines were generated from patient-derived tumors and are widely used model system to study pancreatic cancer (HPAF II: Kim YW, et al. Pancreas 4: 353-362, 1989; BxPC-3: Tan MH, et al. Cancer Invest. 4: 15-23, 1986; MIA-PaCa2: Yunis AA, et al. Int. J. Cancer 19: 128-135, 1977; Pacn-1: Lieber M, et al. Int. J. Cancer 15: 741-747, 1975).
(§2) Panc-1, HPAF II, KPC pancreatic adenocarcinoma cell lines were trypsin-treated and counted using the Casy Cell Counter according to the manufacturer's recommendations (GmbH). Subsequently, they were seeded onto round bottom non-tissue culture treated 96 well-plates (Falcon, BD NJ, USA) at a concentration of 2500 cells/well in 100 µl DMEM-F12 or phenol red-free DMEM-F12 medium, containing 10% FCS and supplemented with 20% methyl cellulose stock solution. For preparation of methylcellulose stock solution, 6 grams of methylcellulose powder (M0512, Sigma-Aldrich) was autoclaved in a 500 ml flask containing a magnetic stirrer (the methylcellulose powder is resistant to this procedure). The autoclaved methylcellulose was dissolved in preheated 250 ml basal medium (60°C) for 20 min (using the magnetic stirrer). Thereafter, 250 ml medium (room temperature) containing double amount of FCS (20%) was added to a final volume of 500 ml and the whole solution mixed overnight at 4°C. The final stock solution was aliquoted and cleared by centrifugation (5000g, 2 h, room temperature). Only the clear highly viscous supernatant was used for the spheroid assay (about 90-95% of the stock solution). […]
(§3) In order to confirm the results presented in figure 1, S1 was further tested in 2 different cell lines in 3D culture format, using an automatic drug screening assay. The effect of Vacquinol-1 RS (S1) on cell viability was measured after 72h using the CellTiter-Glo assay (Promega) adapted for 3D culture.

Panc-1 cells = assay: as above; format: cell-based, human; conditions: Panc-1, 3D culture, 72 h
Description: as §1, §2, §3

[2] = test system: glioblastoma cell line U3013; assay: ATP viability assay (CellTiter-Glo); format: cell-based, human
Description: The human melanoma cell line SK-MEL-28 is a well established reference cell line in melanoma research (Goodfellow M, et al. J. Natl. Cancer Inst. 59: 221-226, 1977). Cells were cultured in MEM supplemented with 10% FCS. Glioblastoma cell line (U3013) was generated directly from patient-derived tumors (Kitambi et al. Cell. 2014: 157(2):313-28) and grown in serum-free media supplemented with N2, B27, EGF, and FGF-2 (20 ng/ml) using previously described methodology (Pollard et al., 2009).
Culture plates were pre-coated with laminin (Sigma) for 3 hr at 10 ug/ml prior to use and confluent cells were split 1:3 to 1:5 using TrypLE Express (Invitrogen).
(§4) Viability assay was conducted in 96 well microtiter plates seeded with 3000 cells. Cell viability was measured using CellTiter-Glo assay (Promega), according to the manufacturer's instructions. Luminescence was measured using Victor3 FA (Perkin Elmer) microtiter plate reader. Total luminescence was normalized relative to negative control and curve fitting performed using GraphPad Prism (v6.02) software. IC50 was determined using Cell Viability assay, and data was illustrated using GraphPad Prism (version 6.02)

MIA-PaCa-2 cell line = assay: ATP viability assay (CellTiter-Glo); format: cell-based; conditions: Homo sapiens; MIA-PaCa-2 (RAS mutation); at 24h, 48h and 72h
Description: as §1, §4

BxPCI-2 cell line = assay: ATP viability assay (CellTiter-Glo); format: cell-based; conditions: Homo sapiens; BxPCI-2 (wild type RAS); at 24h, 48h and 72h
Description: as §1, §4

Brain AUC last ([1]; brain, i.v., 2 mg/kg): 52.7 µg·h/mL
Brain Cmax ([1]; brain, i.v., 2 mg/kg): 1970 ng/mL
Brain tlast ([1]; brain, i.v., 2 mg/kg): 144 h
Brain AUC last ([1]; brain, p.o., 20 mg/kg): 400 µg·h/mL
Brain Cmax ([1]; brain, p.o., 20 mg/kg): 4840 ng/mL
Brain tlast ([1]; brain, p.o., 20 mg/kg): 144 h
Kp ([1]; po, 20 mg/kg, read-out: exposure ratio AUC(brain/plasma)): 1.6
Kp ([1]; po, 20 mg/kg, read-out: exposure ratio Cmax(brain/plasma)): 2.2
half-life ([1]; iv, brain, i.v., 2 mg/kg, read-out: Brain T1/2 (converted)): 67 h
Tmax ([1]; iv, brain, i.v., 2 mg/kg, read-out: Brain tmax): 0.25 h
Cmax ([1]; iv, plasma, 2 mg/kg): 775 ng/mL
half-life ([1]; iv, plasma, i.v., 2 mg/kg, read-out: Plasma T1/2 (converted)): 84 h
Tmax ([1]; iv, plasma, i.v., 2 mg/kg, read-out: Plasma tmax): 4 h
Tmax ([1]; po, brain, p.o., 20 mg/kg, read-out: Brain tmax): 8 h
Cmax ([1]; po, plasma, 20 mg/kg): 2210 ng/mL
Tmax ([1]; po, plasma, p.o., 20 mg/kg, read-out: Plasma tmax): 4 h
Plasma AUC last ([1]; plasma, i.v., 2 mg/kg): 62 µg·h/mL
Plasma tlast ([1]; plasma, i.v., 2 mg/kg): 144 h
Plasma AUC last ([1]; plasma, p.o., 20 mg/kg): 246 µg·h/mL
Plasma tlast ([1]; plasma, p.o., 20 mg/kg): 144 h
IC50 ([2]; Homo sapiens, U3013, positive control cell line, 24, 48 and 72 h): 1.9 to 3.5 µM
IC50 (MIA-PaCa-2 cell line): 12 to 19 µM
IC50 (BxPCI-2 cell line): 12 to 19 µM
Structure (SMILES): O[C@H](c1cc(-c2ccc(Cl)cc2)nc2ccccc12)[C@@H]1CCCCN1 [S1, (R)-(2-(4-chlorophenyl)quinolin-4-yl)((S)-piperidin-2-yl)methanol]
viability compared to control (HPAF II cells): marked decrease in viability
decrease in viability (Panc-1 cells; 20-10 µM): ~20%
viability compared to control (Panc-1 cells; 30 and 25 µM): marked decrease in viability
in vitro cytotoxicity, comparison of isolated isomers ([2]; U3013, dose response, CellTiterGlo ATP quantification): S1 and S2 exhibit greater in vitro oncolytic potency than the corresponding S3 and S4 isomers; also recorded: S1 and S2 exhibit higher cytotoxicity on cancer cells than S3 and S4
